Earlier results on 1 compound are cited in US20060009360A1, “New adjuvant composition” (priority 2004, published 2006).

Molecules are shown by their SMILES.

The conditions of the data set: glyphosate in acid form.

With `O=C(O)CNCP(=O)(O)O` [glyphosate, N-(phosphonomethyl)glycine], the water solubility entry is reported as “about 1.2%”.
